What was measured:
LNCaP cells = assay: LNCaP cell proliferation in phenol red-free and steroid-free medium; assay type: cell-based, human; conditions: ANG 0.1 μg/ml, DHT 10 nM
Protocol: (§1) (a) ANG stimulates LNCaP cell proliferation in the absence of androgens. Cells were culture in phenol red-free and charcoal/dextran-stripped (steroid-free) FBS for 2 day and stimulated with DHT (10 nM), ANG (0.1 μg/ml), or a mixture of the two for the time indicated. (b) Dose dependence. ANG was added to the cells and cultured for 4 days. (c) Anti-ANG mAb 26-2F inhibits DHT-induced cell proliferation. LNCaP cells were stimulated with 10 nM DHT in the presence of 26-2F or a control non-immune IgG for 3 days. (d) ANG over-expression promotes LNCaP proliferation in vitro. The vector control (pCI-Neo) and ANG transfectants (pCI-ANG) were cultured in phenol red-free and steroid-free medium for the time indicated. (e) Xenograft growth in castrated SCID mice. A mixture of 70 μl cell suspension (1×10^6 cells) and 30 μl Matrigel was injected s.c. per mouse (8 per group). The mice were castrated or sham-operated at the same time. Tumors were inspected and measured twice a week and the animals were sacrificed after 8 weeks of observation. (f) Endogenous ANG of LNCaP cells is essential for androgen-induced rRNA transcription. LNCaP cells were cultured in phenol red-free and steroid-free medium and incubated with DHT (10 nM), ANG (0.1 μg/ml), anti-ANG mAb 26-2F (60 μg/ml) or a mixture of DHT and 26-2F for 2 h. […]

47S rRNA = assay: rRNA transcription in LNCaP cells by Northern blotting; assay type: cell-based, human; conditions: ANG 0.1 μg/ml, 26-2F 60 μg/ml, 2 h
Protocol: as §1

AR = target: T1, AR (Homo sapiens, UniProt P10275, T878A); assay: Nuclear translocation of AR in LNCaP cells by immunofluorescence; assay type: cell-based; conditions: ANG 0.1 μg/ml, 2 h
T1 construct: in untreated LNCaP cells, AR was diffusely distributed throughout the cytoplasm; endogenous in cells; host or cells: LNCaP
T1 sequence (P10275 1-920 T878A): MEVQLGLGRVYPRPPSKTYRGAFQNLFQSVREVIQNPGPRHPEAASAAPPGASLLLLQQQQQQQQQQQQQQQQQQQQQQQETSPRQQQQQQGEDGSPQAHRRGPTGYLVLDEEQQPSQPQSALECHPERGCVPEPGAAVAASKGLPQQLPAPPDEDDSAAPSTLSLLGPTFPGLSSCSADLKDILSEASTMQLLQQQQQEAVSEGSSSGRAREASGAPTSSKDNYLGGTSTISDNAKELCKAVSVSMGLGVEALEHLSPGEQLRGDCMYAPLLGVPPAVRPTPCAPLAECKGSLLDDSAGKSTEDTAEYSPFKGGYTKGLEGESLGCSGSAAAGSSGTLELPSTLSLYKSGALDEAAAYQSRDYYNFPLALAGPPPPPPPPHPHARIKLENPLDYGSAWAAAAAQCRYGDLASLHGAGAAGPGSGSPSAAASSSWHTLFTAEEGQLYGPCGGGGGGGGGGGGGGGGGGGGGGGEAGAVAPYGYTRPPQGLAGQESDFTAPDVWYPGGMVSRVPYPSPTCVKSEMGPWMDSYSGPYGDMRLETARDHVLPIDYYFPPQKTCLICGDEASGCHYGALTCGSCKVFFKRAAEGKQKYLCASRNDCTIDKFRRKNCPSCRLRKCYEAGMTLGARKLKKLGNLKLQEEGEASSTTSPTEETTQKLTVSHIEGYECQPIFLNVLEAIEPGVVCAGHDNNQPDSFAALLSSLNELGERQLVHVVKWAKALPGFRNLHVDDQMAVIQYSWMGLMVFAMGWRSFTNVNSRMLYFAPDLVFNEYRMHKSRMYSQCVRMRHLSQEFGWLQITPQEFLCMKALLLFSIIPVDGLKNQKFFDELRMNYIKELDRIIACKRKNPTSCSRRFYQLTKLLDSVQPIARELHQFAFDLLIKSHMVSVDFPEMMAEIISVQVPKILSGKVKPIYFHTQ
Protocol: FIG. 19 is a four panel figure that depicts a series of photographs showing immunofluorescently labeled LNCaP cells, showing the effect of ANG on nuclear translocation of AR (panels a-d). LNCaP cells were cultured in charcoal/dextran-stripped FBS and phenol red-free medium for 2 days, and incubated with ANG (0.1 μg/ml), DHT (10 nM) or DHT (10 nM)+anti-ANG mAb 26-2F (30 μg/ml) for 2 h. The cells were fixed and stained for AR by immunofluorescence.

[1] = tested on: PC-3, PC-3M, and DU-145 cells; assay: Proliferation of androgen-independent prostate cancer cells; assay type: cell-based, human
PIN = assay: Injection of human ANG protein into the ventral prostate of MPAKT mice (cancer invasion); assay type: in vivo; conditions: 50 μg per mouse, 9 weeks-old MPAKT mice, sacrificed 2 weeks later
Protocol: Human ANG protein, 50 μg per mouse, was injected into the surgically exposed ventral prostate of 9 weeks-old MPAKT mice. The mice were sacrificed 2 weeks later and the prostates were processed for H&E staining. Cells invading outside of the basement membrane are indicated by arrows.

Substance: ANG: angiogenin, a 14 kDa angiogenic ribonuclease
- LNCaP cell proliferation in the absence of androgens (LNCaP cells): stimulates
- rRNA transcription in LNCaP cells (47S rRNA): stimulated
- nuclear translocation of AR in the absence of androgen (AR): stimulated
- effect of exogenously added ANG on cell proliferation [1]: no effect
- animals with micro invasions (PIN): 2 of the 4

From patent US20210223230A1, “Neamine Compositions and Methods of Use Thereof” (President and Fellows of Harvard College, priority 2008, published 2021)
